Experimental data published in ChEMBL document CHEMBL1128242, “Polyiodinated triglyceride analogs as potential computed tomography imaging agents for the liver” (J Med Chem, 1995).

Columns and labels:
Type in all cases: ADME, organism-based
Rattus norvegicus [1] = assay: Distribution of radioactivity was determined in blood at 24 hr after intravenous administration of 1,3-Disubstituted Triacylglycerols in rats; conditions: in vivo
Rattus norvegicus [2] = assay: Distribution of radioactivity was determined in blood at 3h after intravenous administration of 1,3-Disubstituted Triacylglycerols in rats; conditions: in vivo
Rattus norvegicus [3] = assay: Distribution of radioactivity was determined in blood at 30 min after intravenous administration of 1,3-Disubstituted Triacylglycerols in rats; conditions: in vivo, 0.5 h
Rattus norvegicus [4] = assay: Polyacrylamide Gel Electrophoresis (PAGE) to determined the concentration of stacking gel(SG) in rats after iv administration of [125I]-labeled 2-Oleolyl 1,3-disubstituted triglycerols was reported; conditions: in vivo
Rattus norvegicus [5] = assay: Distribution of radioactivity was determined in blood at 24 hr after intravenous administration of [125I]-labeled 2-oleoglycerol 1,3-Bis-[omega-(3-amino-2,4,6-triiodophenyl)alkanoates] in rats; conditions: in vivo
Rattus norvegicus [6] = assay: Distribution of radioactivity was determined in kidney at 30 min after intravenous administration of [125I]-labeled 2-oleoglycerol 1,3-Bis-[omega-(3-amino-2,4,6-triiodophenyl)alkanoates] in rats; conditions: in vivo, 0.5 h
Rattus norvegicus [7] = assay: Distribution of radioactivity was determined in plasma at 3h after intravenous administration of [125I]-labeled 2-oleoglycerol 1,3-Bis-[omega-(3-amino-2,4,6-triiodophenyl)alkanoates] in rats; conditions: in vivo
Rattus norvegicus [8] = assay: Distribution of radioactivity was determined in spleen at 30 min after intravenous administration of 1,3-Disubstituted Triacylglycerols in rats; conditions: in vivo, 0.5 h
Rattus norvegicus [9] = assay: Distribution of radioactivity was determined in liver at 3h after intravenous administration of [125I]-labeled 2-oleoglycerol 1,3-Bis-[omega-(3-amino-2,4,6-triiodophenyl)alkanoates] in rats; conditions: in vivo
Rattus norvegicus [10] = assay: Distribution of radioactivity was determined in plasma at 24 hr after intravenous administration of [125I]-labeled 2-oleoglycerol 1,3-Bis-[omega-(3-amino-2,4,6-triiodophenyl)alkanoates] in rats; design: unit not given here; conditions: in vivo
Rattus norvegicus [11] = assay: Distribution of radioactivity was determined in spleen at 30 min after intravenous administration of [125I]-labeled 2-oleoglycerol 1,3-Bis-[omega-(3-amino-2,4,6-triiodophenyl)alkanoates] in rats; conditions: in vivo, 0.5 h
Rattus norvegicus [12] = assay: Polyacrylamide Gel Electrophoresis (PAGE) to determined the concentration of low density lipoprotein (LDL) in rats after iv administration of [125I]-labeled 2-Oleolyl 1,3-disubstituted triglycerols was reported; conditions: in vivo
Rattus norvegicus [13] = assay: Analysis of lipid-soluble radioactivity in plasma 0.5 hour after iv administration of [125I]-labeled 2-Oleoyl 1,3-disubstituted Triacylglycerols expressed as %parent compound (by TLC with authentic [125I]-labeled standard) from rat; conditions: in vivo

Compound | Distribution of radioactivity (Rattus norvegicus [1]) [% dose/organ] | Distribution of radioactivity (Rattus norvegicus [2]) [% dose/organ] | Distribution of radioactivity (Rattus norvegicus [3]) [% dose/organ] | Radioactivity (Rattus norvegicus [4]) [%] | Distribution of radioactivity (Rattus norvegicus [5]) [% dose/g] | Distribution of radioactivity (Rattus norvegicus [6]) [% dose/g] | Distribution of radioactivity (Rattus norvegicus [7]) [% dose/g] | Distribution of radioactivity (Rattus norvegicus [8]) [% dose/organ] | Distribution of radioactivity (Rattus norvegicus [9]) [% dose/g] | Distribution of radioactivity (Rattus norvegicus [10]) | Distribution of radioactivity (Rattus norvegicus [11]) [% dose/g] | Radioactivity (Rattus norvegicus [12]) [%] | Lipid-soluble radioactivity (Rattus norvegicus [13])
CCCCCCCC/C=C/CCCCCCCC(=O)OC(COC(=O)CCc1c(I)cc(I)c(N)c1I)COC(=O)CCc1c(I)cc(I)c(N)c1I | 0.4 | 0.7 | 5.1 | 67.3 | 0.04 | 0.11 | 0.09 | 13 | 10.9 | 0.05 | 27.6 | 8.3 | 
CCCCCCCC/C=C/CCCCCCCC(=O)OC(COC(=O)CCCc1c(I)cc(I)c(N)c1I)COC(=O)CCCc1c(I)cc(I)c(N)c1I | 1.5 | 0.9 | 5.8 | 80.9 | 0.15 | 0.14 | 0.13 | 13.7 | 13.8 | 0.24 | 31.7 | 3.2 | 85.8
